These results are taken from US4808729A, “Leukotriene LTD4 and LTB4 antagonists” (G. D. Searle & Co., priority 1987, dated 1989).

Assay [1] addresses T1, guinea pig lung receptors (LTD4 receptor) (Cavia porcellus, UniProt Q2NNR5).
T1 construct: guinea pig lung receptors, isolated from guinea pig lung membrane; from tissue; host or cells: guinea pig lung membrane
T1 sequence (Q2NNR5 1-340): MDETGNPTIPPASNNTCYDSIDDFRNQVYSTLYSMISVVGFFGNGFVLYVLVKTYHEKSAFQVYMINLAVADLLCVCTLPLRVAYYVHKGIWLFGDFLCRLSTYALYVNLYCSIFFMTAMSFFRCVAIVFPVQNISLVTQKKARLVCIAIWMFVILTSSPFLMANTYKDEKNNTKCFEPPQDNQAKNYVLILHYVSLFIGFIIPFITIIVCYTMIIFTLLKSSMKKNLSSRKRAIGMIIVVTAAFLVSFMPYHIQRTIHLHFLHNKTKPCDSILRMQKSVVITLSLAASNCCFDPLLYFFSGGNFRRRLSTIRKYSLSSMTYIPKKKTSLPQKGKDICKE
The experiment in a line: Leukotriene (LTD4) Receptor Binding Assay. The conditions noted are these: LTD4 Antagonism; guinea pig lung membrane. How it is done:
Leukotriene Receptor Binding Assay (12c01)
The in vitro LTD4 receptor binding assay is carried out as follows:
Specific binding of titrated LTD4 to a fixed number of guinea pig lung receptors, isolated from guinea pig lung membrane, is measured in the presence and absence of test compound. The initial screening dose (1×10^-5 M is considered active if the specific binding of LTD4 is reduced by 45% or more. Active compounds are tested in a dose-response manner to determine IC50 values.

Assay [2] addresses T2, guinea pig ileum (LTD4-induced contraction) (Cavia porcellus, UniProt Q2NNR5).
T2 construct: Fresh segments of guinea pig ileum; from tissue; host or cells: guinea pig ileum segments
T2 sequence (Q2NNR5 1-340): T1 sequence (Q2NNR5 1-340)
The experiment in a line: LTD4 Antagonism in Guinea Pig Ileum. In kind it is cell-based. The conditions noted are these: pA2, Schild analysis. How it is done: LTD4 Antagonism in Guinea Pig Ileum
Fresh segments of guinea pig ileum were suspended in 2 ml. tissue baths containing oxygenated modified Tyrodes solution. After an equilibration period, an agonist dose-response curve was generated by exposing each tissue to 4 different LTD4 doses and measuring the ensuing contractile heights. The ileum segments were washed and rested between exposures to agonist. Following this, the tissues were incubated with a single concentration of test compound and the agonist dose-response procedure was repeated. The dose ratio is a measure of the antagonist's ability to shift the agonist dose-response curve to the right. It is derived as the concentration of agonist necessary to reach a given response level in the presence (A') versus the absence (A) of antagonist. For example, if the test concentration of compound had no effect on the agonist-induced response (A'=A) the dose-ratio would approximate 1. […] One dose-ratio value is determined for each strip of ileum used to test antagonist. […] Schild analysis examines the linearity of the function described by the dose-ratios written as log [(A'/A)-1] versus antagonist concentration. If the linearity is […] and the slope approximates 1, inhibition is considered to be competitive. The pA2 is the negative log of the antagonist concentration required to produce a dose-ratio of 2. This value is considered to be a measure of the affinity of the competitive antagonist.

Assay [3] has as its system LTD4 action on respiratory smooth muscle. The experiment in a line: In Vivo Bronchoconstriction Assay (LTD4-induced). More on the design: species or system guinea pig. To be noted: LTD4 Antagonism, guinea pigs, 2000 units LTD4 IV. How it is done: The compounds are tested in vivo as follows. Adult male fasted Hartly guinea pigs weighing 300-350 g are pretreated with pyrilamine and indomethacin to block the bronchoconstricture effects of endogenous histamine and the synthesis of thromboxane A2 respectively. Compounds of the invention are administered IV or IG at approximate times prior to the IV administration of 2000 units of LTD4. Intratracheal pressure is monitored prior to and subsequent to LTD4 in animals anesthetized with pentobarbital and attached to a rodent respirator. Compounds which antagonize the direct component of LTD4 action on respiratory smooth muscle inhibit intratracheal insufflation pressure increases (P< or =0.05) caused by LTD4. FPL 55712 is used as a control.

Assay [4] concerns the target T3, LTB4 receptor (Homo sapiens, UniProt Q15722).
T3 construct: Neutrophils were purified from venous blood of normal human donors; endogenous in cells; host or cells: human blood neutrophils
The assay can be described thus: LTB4 Receptor Binding Assay (human neutrophils). The conditions noted are these: LTB4 Antagonism, 0.6 nano M (3H) LTB4, 0° C., 45 minutes. How it is done: Preparation of Human Neutrophils
Neutrophils were purified from venous blood of normal human donors using standard techniques of dextran sedimentation, centrifugation on Histopaque sterile solution (Sigma) and hypotonic lysis of erythrocytes (Boyum, A., Isolation of Leukocytes from Human Blood: Further Observations. Scand. J. Lab. Clin. Invest. 21 (Suppl. 97): 31, 1968). The purity of isolated neutrophils was ≥95%.
LTB4 Receptor Binding Assay
Neutrophils (4-6×10^6) in 1 ml Hanks' balanced salt solution containing 10 mM HEPES buffer (HBSS), pH 7.4 and […] nordihydroguaiaretic acid were incubated with 0.6 nano M (^3 H) LTB4 in the presence or absence of test compounds. The incubation was carried out at 0° C. for 45 minutes and terminated by adding 5 ml of ice-cold HBSS followed by rapid filtration of incubation mixture under vacuum through GF/C glass fiber filters. The filters were further washed with 10 ml HBSS and radioactivity was determined. Specific binding was defined as the difference between total binding and nonspecific binding which was not displaced by 10^-7 M unlabeled LTB4. All data refer to specific binding.

The structures appear in SMILES notation.

T3 sequence (Q15722 whole entry): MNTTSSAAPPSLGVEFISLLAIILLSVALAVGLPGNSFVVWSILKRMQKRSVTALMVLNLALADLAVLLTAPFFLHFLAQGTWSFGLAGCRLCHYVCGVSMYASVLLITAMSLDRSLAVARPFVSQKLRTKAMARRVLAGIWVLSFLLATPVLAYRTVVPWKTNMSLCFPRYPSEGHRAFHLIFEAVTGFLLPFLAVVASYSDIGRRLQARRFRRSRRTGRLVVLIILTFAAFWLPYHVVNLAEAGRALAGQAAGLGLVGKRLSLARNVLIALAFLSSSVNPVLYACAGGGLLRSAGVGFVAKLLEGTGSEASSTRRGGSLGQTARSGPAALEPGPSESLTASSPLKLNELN

In assay [1], `CCCc1c(OCCCSCC2COC(CCC(=O)O)(CCC(=O)O)S2)ccc(C(C)=O)c1O` (stereo not drawn) [Example 3, 4-[[[3-(4-Acetyl-3-hydroxy-2-propylphenoxy)propyl]thio]methyl]-1,3-oxathiolane-2,2-dipropanoic acid] displayed an IC50 of 3560 nM. The compound also had a Kb in assay [2] of 21.4 nM. For the same compound, the “In Vivo Bronchoconstriction Assay (% Inhibition at 5 mpk. IV)” value in assay [3] stood at 96.9%.
The matching figures for `CCCc1c(OCCCSCC2CSC(CCC(=O)O)(CCC(=O)O)S2)ccc(C(C)=O)c1O` (stereo not drawn) [Example 35, 4-[[[3-(4-Acetyl-3-hydroxy-2-propylphenoxy)propyl]thio]methyl]-1,3-dithiolane-2,2-dipropanoic acid]: 591 nM, 8.91 nM and 93%.
The matching figures for `CCCc1c(OCCCSCC2COC(C)(CCC(=O)O)S2)ccc(C(C)=O)c1O` (stereo not drawn) [Example 38, 4-[[[3-(4-Acetyl-3-hydroxy-2-propylphenoxy)propyl]thio]methyl]-2-methyl-1,3-oxathiolane-2-propanoic acid]: 9370 nM, 14.5 nM and 87.2%.
Take `CCCc1c(OCCCSCC2CSC(C)(CCC(=O)O)S2)ccc(C(C)=O)c1O` (stereo not drawn) [Example 50, 4-[[[3-(4-Acetyl-3-hydroxy-2-propylphenoxy)propyl]thio]methyl]-2-methyl-1,3-dithiolane-2-propanoic acid]: the IC50 in assay [1] is 9470 nM. The compound also gave a Kb in assay [2] of 14.5 nM. Also, in assay [3], the “In Vivo Bronchoconstriction Assay (% Inhibition at 5 mpk. IV)” value worked out at 91.2%.
`CCCc1c(OCCCSCC2CSC(C)(CCCC(=O)O)S2)ccc(C(C)=O)c1O` (stereo not drawn) [Example 61, 4-[[[3-(4-Acetyl-3-hydroxy-2-propylphenoxy)propyl]thio]methyl]-2-methyl-1,3-dithiolane-2-butanoic acid] came in with an IC50 in assay [1] of 5020 nM. Also, the Kb in assay [2] was 9.55 nM. The “In Vivo Bronchoconstriction Assay (% Inhibition at 5 mpk. IV)” value in assay [3] is 95.6%.
The matching figures for `CCCc1c(OCCCSCC2COC(CCC(=O)O)(c3ccccc3)S2)ccc(C(C)=O)c1O` (stereo not drawn) [Example 70, 4-[[[3-(4-Acetyl-3-hydroxy-2-propylphenoxyl]propyl]thio]methyl]-2-phenyl-1,3-oxathiolane-2-propanoic acid]: 6240 nM, 26.9 nM and 59.2%.
In turn, `CCCc1c(OCCCSCC2CSC(C)(CCCC(=O)O)S2)ccc(C(C)=O)c1OC` (stereo not drawn) [Example 81, 4-[[[3-(4-Acetyl-3-methoxy-2-propylphenoxy)propyl]thio]methyl]-2-methyl-1,3-dithiolane-2-butanoic acid] had an IC50 in assay [4] of 60 nM.
In assay [1], `CCCc1c(OCCCSCC2COC(C)(CCCC(=O)O)S2)ccc(C(C)=O)c1O` (stereo not drawn) [Example 84] gave an IC50 of 7100 nM. Moreover, in assay [3], the “In Vivo Bronchoconstriction Assay (% Inhibition at 5 mpk. IV)” value is 85.1%.

One may read the IC50 as the concentration at which inhibition is half-maximal. Low values mean inhibition by little substance, high ones a need for much substance. Broadly, the Kb is the affinity of an antagonist, worked out from how it opposes an agonist. A lower Kb goes with a more potent antagonist.
